Test results from patent US20050236004A1, “Healthcare model of wellness” (priority 2004, published 2005).

What was measured:
[1] = in vivo
[2] = first principles model of blood serum level of a drug over time
Source text: The relevant internal variables for the modal of FIG. 18 are: • Ingested amount=I • Blood amount=B
The relevant parameters for the model are: • Digestion rate=κ • Absorption rates=α,β • Conversion rate=γ • Excretion rate=ω
The model equations are then: dI/dt=−αI−κ dB/dt−−ωB−γ+αl+κ−βD dD/dt=κ−βD In most cases, these parameters are not available directly, but most infer them from values such as the excretion half-life T1/2 and the time of maximum blood levels, Tmax. For most medications, the digestion and conversion rates are small or zero, and, as such, it is only necessary to estimate the absorption and excretion rates α and ω. […] The system of equations is then given by: dI/dt=αl dB/dt=−ωB+αl which can be solved exactly for the case of a single ingested amount I0 by converting to matrix form: dV/dt=MV where V the column vector [I,B] and M is the coefficient matrix [−α,0][α,−ω]. This matrix equation has the solution: V=exp(Mt)V0 Where exp(Mt) is the exponentiation of M as a matrix taylor series, and V0 is the initial vector. Inserting M=PDP^−1 where D is a diagonal matrix in the taylor series gives: exp(Mt)=Pexp(Dt)P^−1 The eigenvalues are easily given by setting det(D−λI)=0 giving (−α−λ)(−ω−λ)=0, and so λ=−α,−ω D=[−α,0][0,−ω] Solving for the eigenvectors of comprising P gives the following relationship: P=[ω−α)/α,0][1,1] […]

[3] = cited from earlier work

Cc1onc(-c2ccccc2)c1-c1ccc(S(N)(=O)=O)cc1 [BEXTRA, Valdecoxib]
Cmax/AUC [1]: 0.1089 | absorption coefficient α ([2]; computed from Tmax by iterative formula): 1.293 h⁻¹ | excretion coefficient ω ([2]; ln(2)/half-life): 0.08547 h⁻¹ | Cmin ([3]; at 14 day equilibrium): 21.9 ng/mL | Area_Under_Curve(24 hr) ([3]; given value, 24 hr): 1479.0 ng·h/mL | Cmax ([3]; given value): 161.1 ng/mL | Elimination Half-Life ([3]; given value): 8.11 h | Tmax ([3]; given value): 2.25 h
